Data taken from patent US10076511B2, “Bisamide derivative of dicarboxylic acid as an agent for stimulating tissue regeneration and recovery of diminished tissue function” (TREAMID GmbH, priority 2015, dated 2018).

Assays:
male C57BL/6 mice = test: Streptozotocin-induced pancreatic lesion model; format: in vivo, mouse; parameters: The number of piconized cells per islet (pixel): unit not given here
Description: The study was performed on male C57BL/6 mice of 4 week old. Pancreatic damage was induced by intraperitoneal injection of streptozotocin at a dose of 40 mg/kg in 0.25 ml of phosphate buffer every day for 5 days [Szkudelski T. The Mechanism of Alloxan and Streptozotocin Action in B Cells of the Rat Pancreas//Physiological Research.—2001.—Vol. 50.—P. 536-546].
Treamid at a dose of 1 mg/kg was administered daily intragastrically once daily on Days 7-20 of the study.
On Days 0, 6, 10, 13, 16, 19, 21, 24, and 28 of the study, blood glucose was determined. The blood glucose level was determined after four-hour deprivation of feed with a glucometer (SencoCard glucometer, “77 Electronics Kft”, Hungary).
On Day 28 of the study, the animals were euthanized in a CO2 chamber, the pancreas was subjected to a morphological examination, and the pancreatic homogenate was studied on an enzyme-linked immunosorbent assay for common collagen and type I collagen.
For morphological study, a part of the pancreas adjacent to the spleen was fixed in 10% formalin and poured into paraffin. Deparaffined sections of the gland were stained with hematoxylin and eosin. On the sections, the area of 10 serial islets of Langerhans was determined by graphic computer analysis, and the total number of cells and the number of pyknotized cells were counted therein. Then, the number of cells per unit islet area and the percentage of the pyknotized cells were calculated.
Inflammatory cells (neutrophils, lymphocytes, macrophages) in the pancreatic tissue and their composition were studied by staining of the histological sections with hematoxylin-eosin and azur-eosin.
The level of mouse type I collagen in a […] was determined by enzyme-linked immunosorbent assay (Cusabio Biotech CO., LTD, China). The lung tissue homogenate was prepared according to the protocol of the manufacturer, Cusabio Biotech CO., LTD (China).
The level of the total collagen in the lung homogenate was determined by using a SIRCOL Collagen Assay kit (Biocolor Ltd, UK) for determining collagen by binding it to a dye and treating with an acid and a solution of pepsin, according to the manufacturer's instructions. The lung tissue homogenate was prepared according to the protocol of manufacturer's test system.

male rats = format: in vivo, rat; conditions: Day 45 and Day 65
Description: The latter was simulated by a single injection of cytostatic drug Paclitaxel (Mitotax, Dr. Reddy's, India) to male rats (3 months of age). The choice of the drug was due to the fact that it is one of the medications that damage the precursors of spermatogenesis—stem cells.
Paclitaxel was administered to the animals of the control and test groups once intravenously at the maximum tolerated dose of 7.6 mg/kg. Treamid was administered to the animals of the experimental groups intragastrically at a dose of 5 mg/kg in the form of a suspension in 2% starch mucus for 15 days a month after the administration of Paclitaxel. The control animals received an equivalent volume of the solvent (2% starch mucus), instead of the test compound. […]
On Day 1 (in 24 hours), as well as on Day 45 and Day 65 after the administration of Paclitaxel, the animals were euthanized, and the preparations of their testes were made. Further, the content of progenitor cells of spermatogenesis in the testes was determined by an in vitro cloning method. […] Then, the nonadherent fraction of cells was collected, and the number of cells (cells/ml) was counted in the Goriaev chamber. […] After the incubation, the number of colony-forming units, spermatogenic (CFU-Sp)—clusters of more than 30 cells of round shape and of various diameters—was counted. […]

With `O=C(CCCC(=O)NCCc1ncc[nH]1)NCCc1ncc[nH]1` [Treamid] the “The area of the islet tissue (pixel)” value (male C57BL/6 mice; Day 28, Treamid 1 mg/kg) was 635770 ± 56163• pixel, the “The number of piconized cells per islet (pixel)” value (male C57BL/6 mice; Day 28, Treamid 1 mg/kg) was 1.75 ± 0.14 and the “The total number of cells in the islet of Langerhans (×10^4)” value (male C57BL/6 mice; Day 28, Treamid 1 mg/kg) was 109.9 ± 12.6• ×10^4. The “blood glucose level (mM/L)” value (male C57BL/6 mice; Initial level) was 5.1 ± 0.1 mM/L, the “blood glucose level (mM/L)” value (male C57BL/6 mice; day 6 after the last administration of streptozotocin (before Treamid, given Days 7-20)) was 10.8 ± 0.4 mM/L and the “blood glucose level (mM/L)” value (male C57BL/6 mice; day 10, Treamid 1 mg/kg intragastrically Days 7-20) was 11.2 ± 0.2 mM/L. The “blood glucose level (mM/L)” value (male C57BL/6 mice; day 13, Treamid 1 mg/kg intragastrically Days 7-20) was 11.6 ± 0.3*• mM/L, the “blood glucose level (mM/L)” value (male C57BL/6 mice; day 16, Treamid 1 mg/kg intragastrically Days 7-20) was 10.4 ± 1.4 mM/L and the “blood glucose level (mM/L)” value (male C57BL/6 mice; day 19, Treamid 1 mg/kg intragastrically Days 7-20) was 12.0 ± 0.1 mM/L. For the same compound, the “blood glucose level (mM/L)” value (male C57BL/6 mice; day 21, Treamid 1 mg/kg intragastrically Days 7-20) was 12.1 ± 0.4*• mM/L, the “blood glucose level (mM/L)” value (male C57BL/6 mice; day 24, Treamid 1 mg/kg intragastrically Days 7-20) was 12.2 ± 1.0*• mM/L and the “blood glucose level (mM/L)” value (male C57BL/6 mice; day 28, Treamid 1 mg/kg intragastrically Days 7-20) was 12.6 ± 1.1 mM/L. For the same compound, the “increase in the number of colony-forming cells compared with the cytostatic control” value (male rats) was 44-48%.
